# According to patent US20150218212A1, “FLUORINATED EPOXYKETONE-BASED TETRAPEPTIDE COMPOUNDS AND USES THEREOF AS PROTEASOME INHIBITORS” (FLUORINOV PHARMA INC., priority 2012, published 2015):
# Molecular target: T1, chymotrypsin-like (CT-L) proteasome activity (Homo sapiens, UniProt P20618+P28074)
# T1 sequence (P28074 60-263): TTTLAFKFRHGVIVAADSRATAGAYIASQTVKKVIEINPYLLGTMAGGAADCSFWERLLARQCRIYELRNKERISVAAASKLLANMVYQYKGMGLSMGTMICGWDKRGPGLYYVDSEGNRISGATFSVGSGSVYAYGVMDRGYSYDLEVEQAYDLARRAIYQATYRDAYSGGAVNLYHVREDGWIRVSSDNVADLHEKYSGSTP
# T1 sequence (P20618 29-241): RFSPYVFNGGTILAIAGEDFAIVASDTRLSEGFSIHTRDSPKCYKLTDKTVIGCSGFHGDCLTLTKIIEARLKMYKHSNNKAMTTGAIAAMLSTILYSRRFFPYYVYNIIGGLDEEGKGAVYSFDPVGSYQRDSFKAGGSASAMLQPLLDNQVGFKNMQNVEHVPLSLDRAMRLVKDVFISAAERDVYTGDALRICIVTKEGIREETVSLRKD
# Assay: Proteasome enzymatic activity (tumor cell lysates), CT-L, KMS-11
# Type: biochemical
# Settings: KMS-11, mean ± standard deviation
# Procedure: Human multiple myeloma cell lines 8226, H929, JJN3, KMH11, KMS11, KMS18, LP1, MM1S, OPM2 and U266 were grown in Iscove modified Dulbecco's medium (IMDM). Human leukemia cell lines K562, OCI-AML2 and U937 were cultured in RPMI-1640 medium. Primary peripheral blood mononuclear cells were isolated from multiple myeloma patients by Ficoll density gradient centrifugation and bone marrow aspirates were obtained from multiple myeloma patients at the Princess Margaret Cancer Centre of the University Health Network (UHN; Toronto, ON, Canada). Primary cells were cultured in IMDM. The collection and use of human tissue for this study was approved by the UHN institutional ethics review board. All cell culture media were obtained from the Ontario Cancer Institute Tissue Culture Media Facility (Toronto, ON, Canada) and were supplemented with 10% fetal calf serum, […] (Hyclone, Logan, Utah). All cells were grown in a humidified incubator at 37° C. with 5% CO2.
# Cells were harvested by centrifugation at 1,200 rpm at room temperature. Cell pellets were washed with PBS (phosphate buffered saline) and lysed with assay lysis buffer (50 mM HEPES (N-2-hydroxyethylpiperazine-N′-2-ethanesulfonic acid), pH 7.5; 150 mM NaCl; 1% Triton X-100; 2 mM ATP). Cell lysates were incubated on ice for 30 minutes, mixed by vortex every 5 minutes, and then centrifuged at 12,000 g for 10 minutes. The supernatant was transferred to a 96-well plate. For each assay, 10 μg of total protein were incubated for 1 hour at 37° C. with increasing concentrations (1 nM to 10 μM) of test compound diluted in assay buffer (50 mM tris-HCl (tris(hydroxymethyl)aminomethane-HCl), pH 7.5; 150 mM NaCl). DMSO alone was used as a control in every assay plate. After incubation, a specific fluorogenic proteasome substrate was added to each assay reaction at a final concentration of 40 μM in a total volume of 100 μL. N-Succinyl-Leu-Leu-Val-Tyr-7-amino-4-methylcoumarin (Suc-Leu-Leu-Val-Tyr-AMC) was used for measuring chymotrypsin-like (CT-L) activity, t-butoxycarbonyl-Leu-Arg-Arg-7-amino-4-methylcoumarin (Boc-Leu-Arg-Arg-AMC) for trypsin-like (T-L) activity, and benzyloxycarbonyl-L-leucyl-L-leucyl-L-glutamyl-7-amino-4-methylcoumarin (Z-Leu-Leu-Glu-AMC) for caspase-like (C-L) activity. The excitation wavelength was set at 360 nm and the fluorescence emission wavelength of AMC was detected at 460 nm. The fluorescence of free AMC released during the enzymatic reaction was measured with a SpectraMax M5 fluorescent spectrophotometric plate reader (Molecular Devices, Sunnyvale, Calif.). AMC release rate was measured at 37° C. in a kinetic mode, recording every 5 minutes for 30 minutes. Experiments were performed in triplicate and repeated at least twice.
# Table 8 summarizes the data of representative compounds of Formula I for cell viability and CT-L proteasome activity with OCI-AML-2 and KMS-11 cell lines.
row,Compound,IC50 [µM]
1,"CC(C)C[C@H](NC(=O)[C@H](COC(F)F)NC(=O)CN1CCOCC1)C(=O)N[C@@H](COC(F)F)C(=O)N[C@@H](CC(C)C)C(=O)[C@@]1(C)CO1 [Example 1, (2S)—N-[(1S)-1-(difluoromethoxymethyl)-2-[[(1S)-3-methyl-1-[(2R)-2-methyloxirane-2-carbonyl]butyl]amino]-2-oxo-ethyl]-2-[[(2S)-3-(difluoromethoxy)-2-[(2-morpholinoacetyl)amino]propanoyl]amino]-4-methyl-pentanamide]",0.0404 ± 0.00697
2,"CC(C)C[C@H](NC(=O)[C@H](COC(F)F)NC(=O)CN1CCOCC1)C(=O)N[C@@H](Cc1ccccc1)C(=O)N[C@@H](CC(C)C)C(=O)[C@@]1(C)CO1 [Example 2, (2S)-N-[(1S)-1-benzyl-2-[[(1S)-3-methyl-1-[(2R)-2-methyloxirane-2-carbonyl]butyl]-amino]-2-oxo-ethyl]-2-[[(2S)-3-(difluoromethoxy)-2-[(2-morpholinoacetyl)amino]propanoyl]amino]-4-methyl-pentanamide]",0.0468 ± 0.00159
3,"CC(C)C[C@H](NC(=O)[C@H](COC(F)F)NC(=O)CN1CCOCC1)C(=O)N[C@@H](Cc1ccccc1)C(=O)N[C@@H](Cc1ccccc1)C(=O)[C@@]1(C)CO1 [Example 3, (2S)-N-[(1S)-1-benzyl-2-[[(1S)-1-benzyl-2-[(2R)-2-methyloxiran-2-yl]-2-oxo-ethyl]amino]-2-oxo-ethyl]-2-[[(2S)-3-(difluoromethoxy)-2-[(2-morpholinoacetyl)-amino]propanoyl]amino]-4-methyl-pentan-amide]",0.0382 ± 0.00281
4,"CC(C)C[C@H](NC(=O)[C@H](COC(F)F)NC(=O)CN1CCOCC1)C(=O)N[C@@H](COC(F)F)C(=O)N[C@@H](Cc1ccccc1)C(=O)[C@@]1(C)CO1 [Example 4, (2S)-N-[(1S)-2-[[(1S)-1-benzyl-2-[(2R)-2-methyloxiran-2-yl]-2-oxo-ethyl]amino]-1-(difluoromethoxymethyl)-2-oxo-ethyl]-2-[[(2S)-3-(difluoromethoxy)-2-[(2-mor-pholinoacetyl)amino]propanoyl]amino]-4 methyl-pentanamide]",0.0457 ± 0.00826
5,"CC(C)C[C@H](NC(=O)[C@H](COC(F)F)NC(=O)[C@H](COC(F)F)NC(=O)[C@H](CCc1ccccc1)NC(=O)CN1CCOCC1)C(=O)[C@@]1(C)CO1 [Example 7, (2S)-N-[(1S)-1-(difluoromethoxymethyl)-2-[[(1S)-1-(difluoromethoxymethyl)-2-[[(1S)-3-methyl-1-[(2R)-2-methyloxirane-2-carbo-nyl]butyl]amino]-2-oxo-ethyl]amino]-2-oxo-ethyl]-2-[(2-morpholinoacetyl)amino]-4-phenyl-butanamide]",0.0337 ± 0.0056
6,"CC(C)C[C@H](NC(=O)[C@H](Cc1ccccc1)NC(=O)[C@H](COC(F)F)NC(=O)[C@H](COC(F)F)NC(=O)CN1CCOCC1)C(=O)[C@@]1(C)CO1 [Example 11, (2S)-2-[[(2S)-3-(difluoromethoxy)-2-[[(2S)-3-(difluoromethoxy)-2-[(2-morpholinoacetyl)-amino]propanoyl]amino]propanoyl]amino]-N-[(1S)-3-methyl-1-[(2R)-2-methyloxirane-2-carbonyl]butyl]-3-phenyl-propanamide]",0.0507 ± 0.00772
7,"CC(C)C[C@H](NC(=O)[C@H](COC(F)F)NC(=O)[C@H](COC(F)F)NC(=O)[C@H](COC(F)F)NC(=O)CN1CCOCC1)C(=O)[C@@]1(C)CO1 [Example 17, (2S)-3-(difluoromethoxy)-N-[(1S)-1-(difluoromethoxymethyl)-2-[[(1S)-1-(difluoro-methoxymethyl)-2-[[(1S)-3-methyl-1-[(2R)-2-methyloxirane-2-carbonyl]butyl]amino]-2-oxo-ethyl]amino]-2-oxo-ethyl]-2-[(2-mor-pholinoacetyl)amino]-propanamide]",0.0778 ± 0.00677
